Measured values as given in patent publication US7196112B2, “Cell adhesion inhibitors” (Biogen Idec MA Inc., priority 2004, dated 2007).
Where two headings read alike, the source gives them in different places.

Tests used:
α4β1 [1] = target: T1, α4β1 (Homo sapiens, UniProt P05556+P13612); assay: Equilibrium binding on Jurkat cells, competition with 35S-B as reporter
Description: The α4β1-expressing Jurkat human T-cell line (a gift from S. Burakoff, Dana Farber Cancer Institute, Boston, Mass.), and the α4β7-expressing human B-cell line, JY (American Type Tissue Collection, Rockville, Md.) were maintained in culture at 37° C. in RPMI-1640 medium supplemented with 10% fetal bovine serum (FBS). K562 cell lines transfected with either the human α1-integrin chain (Phil Gotwells, Biogen, Inc) or with the human α2 integrin chain (a gift from M. Hemler, Dana Farber Cancer Institute, Boston, Mass.) were maintained in RPMI-1640 medium supplemented with 10% FBS and 1 mg/mL G418. All cells were periodically monitored for high integrin surface expression by FACS analysis. The binding of the various inhibitors to α4β1 were assessed on Jurkat cells by competition using radioactive ^35S-B as a reporter for a 1 occupancy. Jurkat cells were pelleted by centrifugation, washed two times with TBS (50 mM Tris HCl, 150 mM NaCl, 0.1% bovine serum albumin, 2 mM glucose, 10 mM HEPES pH 7.4), suspended at approximately 2×10^6 cells/mL in TBS, and counted using a Neubauer hemocytometer. The cells were further diluted 2×10^6 cells/mL with TBS containing 1 mM CaCl2 and 1 mM MgCl2 and treated with serial dilutions of test compound for 1 hour, and then 5 nM ^35S-B, an amount sufficient to bind all unoccupied receptors, was added for 10 minutes before measuring the bound counts. The cells were then pelleted by centrifugation, resuspended in 100 μL of TBS plus Mn^2+, and transferred to a scintillation vial containing 2.9 mL of ScintiVerse II (Fisher Scientific). Cell-associated radioactivity was quantified by scintillation counting. All studies were performed in siliconized 1.5 mL eppendorf tubes with a standard 1 mL sample volume. Each condition was tested in at least two independent studies. Non-specific binding of ^35S-B to cells was assessed at each cell density and ^35S-B concentration in TBS but in the absence of added metal ion. Specific counts bound were calculated by subtracting non specific counts from total counts bound. Counts bound under these conditions measures integrin that is not occupied by the test compound and is therefore free to bind the ^35S-B. The competition format was also used for kinetic binding studies. Binding and dissociation constants were calculated from α4β1 that remained free to bind the ^35S-B after treatment with test compound.
The affinities of the PEGylated inhibitors for α4β1 were calculated from association and disassociation rate constants using a kinetic analysis. For these studies, Jurkat cells expressing α4β1 (75,000 copies/cell) were treated with the inhibitors and then ^35S-B was added as a probe to detect free α4β1. The levels of bound inhibitor were calculated from a measure of total ^35S-B bound in the absence of added inhibitor and counts bound following inhibitor treatment. […] IC50 values were calculated from equilibrium binding studies on Jurkat cells through competition using ^35S-B as a reporter in buffer containing 1 mM Ca^2+ and 1 mM Mg^2+.
Second, the effect of protein binding on the affinity of the PEGylated inhibitors for α4β1 on Jurkat cells was evaluated from equilibrium binding measurements.

α4β1 [2] = target: T1, α4β1; assay: Kinetic binding to α4β1 on Jurkat cells, competition with 35S-B as probe for free α4β1; design: endogenous in cells; host or cells: Jurkat human T-cell line; settings: for koff: read-out: koff/10^−4; for kon: read-out: kon/10^6; for Kd: calculated from on- and off-rate constants
Description: All cells were periodically monitored for high integrin surface expression by FACS analysis. The binding of the various inhibitors to α4β1 were assessed on Jurkat cells by competition using radioactive ^35S-B as a reporter for a 1 occupancy. Jurkat cells were pelleted by centrifugation, washed two times with TBS (50 mM Tris HCl, 150 mM NaCl, 0.1% bovine serum albumin, 2 mM glucose, 10 mM HEPES pH 7.4), suspended at approximately 2×10^6 cells/mL in TBS, and counted using a Neubauer hemocytometer. The cells were further diluted 2×10^6 cells/mL with TBS containing 1 mM CaCl2 and 1 mM MgCl2 and treated with serial dilutions of test compound for 1 hour, and then 5 nM ^35S-B, an amount sufficient to bind all unoccupied receptors, was added for 10 minutes before measuring the bound counts. The cells were then pelleted by centrifugation, resuspended in 100 μL of TBS plus Mn^2+, and transferred to a scintillation vial containing 2.9 mL of ScintiVerse II (Fisher Scientific). Cell-associated radioactivity was quantified by scintillation counting. All studies were performed in siliconized 1.5 mL eppendorf tubes with a standard 1 mL sample volume. Each condition was tested in at least two independent studies. Non-specific binding of ^35S-B to cells was assessed at each cell density and ^35S-B concentration in TBS but in the absence of added metal ion. Specific counts bound were calculated by subtracting non specific counts from total counts bound. Counts bound under these conditions measures integrin that is not occupied by the test compound and is therefore free to bind the ^35S-B. The competition format was also used for kinetic binding studies. Binding and dissociation constants were calculated from α4β1 that remained free to bind the ^35S-B after treatment with test compound.
The affinities of the PEGylated inhibitors for α4β1 were calculated from association and disassociation rate constants using a kinetic analysis. For these studies, Jurkat cells expressing α4β1 (75,000 copies/cell) were treated with the inhibitors and then ^35S-B was added as a probe to detect free α4β1. The levels of bound inhibitor were calculated from a measure of total ^35S-B bound in the absence of added inhibitor and counts bound following inhibitor treatment.

α4β1 [3] = target: T1, α4β1; assay: VCAM-Ig direct binding assay (DBA), Jurkat cells
Excerpt: A direct binding assay may also be employed to quantitate the inhibitory activity of the compounds. In this assay, a VCAM-IgG fusion protein containing the first two immunoglobulin domains of VCAM (D1D2) attached above the hinge region of an IgG1 molecule (“VCAM 2D-IgG”), is conjugated to a marker enzyme, such as alkaline phosphatase (“AP”). […] The conjugation of that fusion to a marker enzyme is achieved by cross-linking methods well-known in the art.
The VCAM-IgG enzyme conjugate is then placed in the wells of a multi-well filtration plate, such as that contained in the Millipore Multiscreen Assay System (Millipore Corp., Bedford, Mass.). Varying concentrations of the test inhibitory compound are then added to the wells followed by addition of VLA-4-expressing cells. The cells, compound and VCAM-IgG enzyme conjugate are mixed together and allowed to incubate at room temperature. Following incubation, the wells are vacuum drained, leaving behind the cells and any bound VCAM. Quantitation of bound VCAM is determined by adding an appropriate calorimetric substrate for the enzyme conjugated to VCAM-IgG and determining the amount of reaction product. Decreased reaction product indicates increased binding inhibitory activity.
Samples were also evaluated for function using the VCAM-Ig direct binding assay. Details for the construction of the VCAM-Ig animal cell expression vector, the generation of a Chinese hamster ovary (CHO) cell line expressing VCAM-Ig, conjugation of the VCAM-Ig to alkaline phosphatase, and the development of a direct binding assay for characterizing α4β1 and α4β7 binding to VCAM-Ig were as previously described (see Lobb, R. R., et al. (1995) Cell Adhes. Commun. 3:385–397).
For these studies, a series of compounds based on compound E containing 0.35, 2, 5, 20, 30, and 50 kDa-mPEG was synthesized and tested for binding to α4β1 on Jurkat cells with VCAM-Ig as a reporter (see methods).

[4] = IC50, buffer with 1 mM Ca2+ and 1 mM Mg2+, no plasma

T1 sequence (P13612 34-1032): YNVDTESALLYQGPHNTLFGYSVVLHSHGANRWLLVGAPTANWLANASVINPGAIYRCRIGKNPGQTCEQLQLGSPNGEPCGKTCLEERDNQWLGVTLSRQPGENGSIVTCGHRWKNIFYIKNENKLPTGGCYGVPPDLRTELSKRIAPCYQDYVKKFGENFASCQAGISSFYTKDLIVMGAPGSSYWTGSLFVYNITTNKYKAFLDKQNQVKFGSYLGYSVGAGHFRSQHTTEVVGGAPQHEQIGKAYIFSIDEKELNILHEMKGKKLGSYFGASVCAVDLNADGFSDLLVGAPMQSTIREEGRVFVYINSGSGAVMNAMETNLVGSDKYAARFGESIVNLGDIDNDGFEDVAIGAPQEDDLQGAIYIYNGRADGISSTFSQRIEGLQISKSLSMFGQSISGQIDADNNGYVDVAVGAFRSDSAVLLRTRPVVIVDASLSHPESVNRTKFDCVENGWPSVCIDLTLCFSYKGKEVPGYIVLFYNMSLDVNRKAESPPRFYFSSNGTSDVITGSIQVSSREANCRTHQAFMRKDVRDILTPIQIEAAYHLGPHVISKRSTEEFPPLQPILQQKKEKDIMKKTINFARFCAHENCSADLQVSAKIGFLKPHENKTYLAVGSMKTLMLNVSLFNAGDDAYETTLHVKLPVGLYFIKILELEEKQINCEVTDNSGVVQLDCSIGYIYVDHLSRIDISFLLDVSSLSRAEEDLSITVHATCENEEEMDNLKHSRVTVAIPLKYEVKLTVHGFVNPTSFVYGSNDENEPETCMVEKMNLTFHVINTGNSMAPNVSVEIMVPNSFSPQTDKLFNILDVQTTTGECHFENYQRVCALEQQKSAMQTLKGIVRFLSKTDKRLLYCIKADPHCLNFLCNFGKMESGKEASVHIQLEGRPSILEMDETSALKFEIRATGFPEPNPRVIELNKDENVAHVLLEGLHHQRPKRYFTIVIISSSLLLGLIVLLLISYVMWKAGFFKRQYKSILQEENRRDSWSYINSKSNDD
T1 sequence (P05556 21-798): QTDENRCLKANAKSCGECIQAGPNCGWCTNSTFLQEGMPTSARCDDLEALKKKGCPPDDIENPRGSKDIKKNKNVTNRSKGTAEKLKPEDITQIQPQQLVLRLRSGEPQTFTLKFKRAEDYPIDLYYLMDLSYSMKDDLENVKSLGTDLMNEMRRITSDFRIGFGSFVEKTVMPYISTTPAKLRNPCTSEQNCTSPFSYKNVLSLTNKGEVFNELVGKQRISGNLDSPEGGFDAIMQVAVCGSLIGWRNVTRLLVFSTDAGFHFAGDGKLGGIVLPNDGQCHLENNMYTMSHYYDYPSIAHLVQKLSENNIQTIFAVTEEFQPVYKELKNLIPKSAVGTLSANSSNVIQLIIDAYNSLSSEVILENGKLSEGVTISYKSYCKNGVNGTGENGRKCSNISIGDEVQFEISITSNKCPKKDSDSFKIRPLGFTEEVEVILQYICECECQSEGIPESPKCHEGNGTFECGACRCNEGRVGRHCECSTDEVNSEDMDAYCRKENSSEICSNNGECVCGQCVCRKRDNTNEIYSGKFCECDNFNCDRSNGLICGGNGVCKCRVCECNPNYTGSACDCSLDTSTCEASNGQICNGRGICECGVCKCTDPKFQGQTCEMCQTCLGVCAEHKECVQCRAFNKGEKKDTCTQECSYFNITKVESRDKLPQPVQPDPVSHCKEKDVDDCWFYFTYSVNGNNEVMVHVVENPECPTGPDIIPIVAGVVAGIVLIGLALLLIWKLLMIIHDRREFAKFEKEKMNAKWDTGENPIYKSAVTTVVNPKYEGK

SMILES | IC50 (α4β1 [1]; IC50(HP), 100% human plasma) [nM] | IC50 (α4β1 [1]; [4]) [nM] | koff (α4β1 [2]; Jurkat cells, 35S-B probe) [s⁻¹] | kon (α4β1 [2]; Jurkat cells, 35S-B probe) [M⁻¹ s⁻¹] | Kd (α4β1 [2]; Jurkat cells) [nM] | DBA 100% rat plasma, % @ 50 nM (α4β1 [3]; 100% rat plasma, 50 nM) | IC50 (α4β1 [3]; read-out: DBA IC50 Ca2+Mg2+, Ca2+Mg2+) [nM] | IC50 (α4β1 [3]; read-out: DBA IC50 Mn2+, Mn2+) [nM] | % bound Ca2+Mg2+ 30 min (α4β1 [2]; Ca2+Mg2+, 30 min) [%] | % bound Mn2+ 60 min (α4β1 [2]; Mn2+, 60 min) [%] | koff (α4β1 [2]) [s⁻¹] | kon (α4β1 [2]) [M⁻¹ s⁻¹]
Cc1ccccc1NC(=O)Nc1ccc(CC(=O)N(C)[C@@H](CC(C)C)C(=O)NCC[C@H](NC(=O)[C@@H]2C[C@@H](N)CN2S(=O)(=O)c2ccccc2)C(=O)O)cc1 [C] | 2.1 | 1.2 | 0.00012 | 3e+06 | 0.04 | – | – | – | – | – | – | –
Cc1ccccc1NC(=O)Nc1ccc(CC(=O)N(C)C(CC(C)C)C(=O)NCCC(NC(=O)C2CC(NC(=O)CCCCCNC(=O)CCCCCCC(=O)NCCCCCC(=O)NC3CC(C(=O)NC(CCNC(=O)C(CC(C)C)N(C)C(=O)Cc4ccc(NC(=O)Nc5ccccc5C)cc4)C(=O)O)N(S(=O)(=O)c4ccccc4)C3)CN2S(=O)(=O)c2ccccc2)C(=O)O)cc1 (stereo not drawn) [Q] | – | – | – | – | – | (0% @ | 74 | 4.3 | 0.1 | 93 | – | –
Cc1ccccc1NC(=O)Nc1ccc(CC(=O)N(C)[C@@H](CC(C)C)C(=O)NCC[C@H](NC(=O)[C@@H]2C[C@H](N)CN2S(=O)(=O)c2ccccc2)C(=O)O)cc1 [F] | 8.7 | 3.5 | 0.00024 | 3.4e+06 | 0.07 | – | – | – | – | – | – | –
Cc1ccccc1NC(=O)Nc1ccc(CC(=O)N(C)C(CC(C)C)C(=O)NCCC(NC(=O)[C@@H]2C[C@H](NC(=O)CCCCCN)CN2S(=O)(=O)c2ccccc2)C(=O)O)cc1 (relative stereo) [D] | 7.9 | 1.5 | – | – | 0.061 | – | – | – | – | – | 0.0002 | 3.3e+06
Cc1ccccc1NC(=O)Nc1ccc(CC(=O)N(C)[C@@H](CCCCNC(=O)CCCCCN)C(=O)NCC[C@H](NC(=O)[C@@H]2CCCN2S(=O)(=O)c2ccccc2)C(=O)O)cc1 [Compound A, 4-[6-(6-Amino-hexanoylamino)-2(S)-(methyl-{2-[4-(3-o-tolyl-ureido)-phenyl]-acetyl}-amino)-hexanoylamino]-2(S)-[(1-benzenesulfonyl-pyrrolidine-2(S)-carbonyl)-amino]-butyric acid] | 2.1 | 0.35 | – | – | 0.25 | – | – | – | – | – | 0.00053 | 2e+06
Cc1ccccc1NC(=O)Nc1ccc(CC(=O)N(C)C(CC(C)C)C(=O)NCCC(NC(=O)[C@@H]2C[C@@H](NC(=O)CCCCCN)CN2S(=O)(=O)c2ccccc2)C(=O)O)cc1 (relative stereo) [E] | 2.3 | 1.4 | – | – | 0.044 | – | – | – | – | – | 0.00011 | 2.5e+06
